Tests used:
hLBAT = molecular target: T1, hLBAT (Homo sapiens, UniProt Q14973); experiment: LBAT (h/m) assay, 3H-taurocholic acid uptake in human LBAT-overexpressing cells; assay type: cell-based; settings: 0.3 μM 3H-taurocholic acid and 7.5 μM cold taurocholic acid, 20 minutes
T1 construct: expressed in transfected cells; kept under Geneticin selection
T1 sequence (Q14973 1-349): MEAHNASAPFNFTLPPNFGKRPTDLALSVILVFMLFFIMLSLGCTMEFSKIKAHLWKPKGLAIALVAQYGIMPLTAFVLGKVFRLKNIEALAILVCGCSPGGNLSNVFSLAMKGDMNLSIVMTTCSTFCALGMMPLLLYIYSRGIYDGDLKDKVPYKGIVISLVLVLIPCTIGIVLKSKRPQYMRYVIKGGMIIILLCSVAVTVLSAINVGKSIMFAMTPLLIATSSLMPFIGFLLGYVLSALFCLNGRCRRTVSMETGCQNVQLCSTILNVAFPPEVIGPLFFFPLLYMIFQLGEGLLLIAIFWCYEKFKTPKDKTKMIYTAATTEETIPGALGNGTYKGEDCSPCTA
Protocol: 20,000 cells (Human or Mouse LBAT-overexpressing cells) were seeded in 96-wells plate (Corning CLS3809) in 100 μL MEM-alpha medium (Gibco 12571-063) supplemented with 10% FBS (Gibco 10438026) containing Geneticin (Gibco 10131-027) (1 mg/mL) and incubated at 37° C. in 5% CO2 for 24 hours. After incubation, media was decanted from the wells and cells were washed two times with 300 μL of basal MEM-alpha medium (FBS-free). After decanting basal MEM-alpha medium each time, plates were tapped against paper towel to ensure maximum removal of residual media. For human LBAT, incubation mix was prepared by adding test inhibitor dilutions (3-fold serial dilution in DMSO (Sigma D2650), 10 points) in MEM-alpha (without FBS) containing 0.3 μM 3H-taurocholic acid (ARC ART-1368) and 7.5 μM cold taurocholic acid (Sigma T4009) (maintaining 0.2% final DMSO concentration). For mouse LBAT, incubation mix was prepared by adding test inhibitor dilutions (3-fold serial dilution in DMSO, 10 points) in MEM-alpha (without FBS) containing 0.3 μM 3H-taurocholic acid and 25 μM cold taurocholic acid maintaining 0.2% final DMSO concentration). 50 μL of incubation mix containing test inhibitors was then added to the wells (in duplicate) and the plates were incubated for 20 minutes in a CO2 incubator at 37° C. After incubation, the reaction was stopped by keeping the plates on ice water mix for 2-3 minutes and then the incubation mix was aspirated completely from the wells. The wells were washed two times with 250 μL of chilled unlabelled 1 mM taurocholic acid dissolved in HEPES (Gibco 15630080)-buffered (10 mM) HBSS (Gibco 14175079) (pH 7.4). The plates were tapped against a paper towel after every wash to ensure maximum removal of blocking buffer.
100 μL of MicroScint-20 (PerkinElmer 6013621) was added to the wells and kept overnight at room temperature before reading the plates in TopCount NXT™ Microplate Scintillation and Luminescence Counter from PerkinElmer under 3H Test protocol (set at 120 seconds reading time per well, with normal plate orientation).
(§1) All test compounds were provided in powder form at room temperature. 10 mM DMSO stocks of the test compounds were prepared, aliquoted and stored at −20° C. From the 10 mM DMSO stock of the compounds, a 3-fold serial dilution in DMSO was prepared to get a total of 10 dilutions of the test compounds. 0.5 μL of this dilution in DMSO was added to 250 μL of FBS-free basal media containing 3H-taurocholic acid and cold taurocholic acid to prepare the incubation mixture.

hIBAT = molecular target: T2, hIBAT (Homo sapiens, UniProt Q12908); experiment: IBAT (h/m) assay, 3H-taurocholic acid uptake in human IBAT-overexpressing cells; assay type: cell-based; settings: 0.25 μM 3H-taurocholic acid and 5 μM cold taurocholic acid, 20 minutes
T2 construct: expressed in transfected cells; kept under Puromycin selection
T2 sequence (Q12908 1-348): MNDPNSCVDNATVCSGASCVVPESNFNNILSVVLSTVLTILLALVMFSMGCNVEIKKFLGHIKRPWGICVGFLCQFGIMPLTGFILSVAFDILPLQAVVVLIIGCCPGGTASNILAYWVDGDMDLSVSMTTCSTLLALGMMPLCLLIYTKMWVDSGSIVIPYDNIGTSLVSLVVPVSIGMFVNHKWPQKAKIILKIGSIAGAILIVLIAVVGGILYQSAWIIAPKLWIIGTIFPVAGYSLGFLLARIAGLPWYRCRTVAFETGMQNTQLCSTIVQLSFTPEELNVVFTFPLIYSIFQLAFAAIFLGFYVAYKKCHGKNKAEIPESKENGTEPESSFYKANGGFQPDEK
Protocol: 10,000 cells (Human or Mouse IBAT-overexpressing cells) were seeded in 96-wells plate (Corning CLS3809) in 200 μL MEM-alpha medium (Gibco 12571-063) supplemented with 10% FBS (Gibco 10438026) containing Puromycin (Gibco A1113803) (10 μg/mL) and incubated at 37° C. in 5% CO2 for 48 hours. After incubation, media was decanted from the wells and cells were washed two times with 300 μL of basal MEM-alpha medium (FBS-free). After decanting basal MEM-alpha medium each time, plates were tapped against paper towel to ensure maximum removal of residual media. Test inhibitor dilutions (highest test concentration being 10 μM, 3-fold serial dilution, 10 points) prepared in DMSO (Sigma D2650) were added in incubation mix (maintaining 0.2% final DMSO concentration) containing 0.25 μM 3H-taurocholic acid (ARC ART-1368) and 5 μM of cold taurocholic acid (Sigma T4009). 50 μL of incubation mix containing test inhibitors was then added to the wells (in duplicate) and the plates were incubated for 20 minutes in a CO2 incubator at 37° C. After incubation, the reaction was stopped by keeping the plates on ice water mix for 2-3 minutes and then the incubation mix was aspirated completely from the wells. The wells were washed two times with 250 μL of chilled unlabelled 1 mM taurocholic acid dissolved in HEPES (Gibco 15630080)-buffered (10 mM) HBSS (Gibco 14175079) (pH 7.4). The plates were tapped against a paper towel after every wash to ensure maximum removal of blocking buffer.
100 μL of MicroScint-20 (PerkinElmer 6013621) was added to the wells and kept overnight at room temperature before reading the plates in TopCount NXT™ Microplate Scintillation and Luminescence Counter from PerkinElmer under 3H Test protocol (set at 120 seconds reading time per well).
as §1

[1] = Bidirectional permeability assay (Caco-2 cells); settings: human, Caco-2
Protocol: Caco-2 cells (Evotec) were seeded at a density of 70,000 cells/well in Millicell® 24-well cell culture insert plates and maintained in an incubator (37° C., 5% CO2, 95% RH) for 21 days with media change on alternate days.
Stock solutions (10 mM) of the test compounds, atenolol (low permeability marker), propranolol (high permeability marker) and digoxin (substrate for P-gp transport pathway) were prepared in dimethylsulfoxide (DMSO). An intermediate stock solution (1 mM) was prepared by diluting 10 μL of 10 mM master stock solution with 90 μL of neat DMSO. A working stock solution (10 μM) was prepared by diluting 50 μL of 1 mM with 4950 μL of FaSSIF buffer. Post addition of compounds to the FaSSIF, samples were subjected to sonication for 2 hours, and centrifuged at 4000 RPM for 30 minutes at 37° C. The 4 mL of resultant supernatant was directly used in the assay. The final DMSO concentration in the transport experiments was 1%.
On the day of assay, Caco-2 monolayers were washed twice with transport buffer (HBSS, pH 7.4) and pre-incubated for 30 min (37° C., 5% CO2, 95% RH) in an incubator. The electrical resistance of the monolayers was measured with a Millicell®—ERS system. Monolayers with trans-epithelial electrical resistance (TEER) values greater than 350 ohm·cm^2 were selected for the assay.
The assay was conducted in absorptive direction (A2B) and secretory (B2A) directions. Transport experiments were initiated by addition of transport assay buffer (FaSSIF buffer prepared in HBSS) consisting of compounds to the donor compartment (apical chamber A-B; basolateral chamber B-A) in duplicate (n=2) wells. Drug free HBSS buffer (pH 7.4) containing 1% bovine serum albumin (BSA) was introduced to the receiver (A-B-basolateral; B-A-Apical) compartments. The volumes of apical and basolateral compartments were 0.4 and 0.8 mL, respectively. After adding dosing solution, plates were incubated in an incubator for 120 minutes at 37° C. After 120 minutes, donor and receiver samples were collected and matrix matched (1:1, 30 μL study sample+30 μL blank buffer) with the opposite buffer. Dosing samples matrix matched (1:1, 30 μL study sample+30 μL blank buffer) with the opposite buffer. Samples were processed by adding acetonitrile containing internal standard (60 μL study sample+200 μL acetonitrile containing internal standard—Tolbutamide, 500 ng/mL). Samples were vortexed and centrifuged at 4000 rpm for 10 minutes. The obtained supernatant (100 μL) was diluted with 100 μL of water and transferred to fresh 96 well plates. The concentration of compounds in the samples was analyzed by liquid chromatography tandem mass spectrometry (LC-MS/MS) method using discovery grade bio-analytical method, as applicable.
The mean apparent permeability (Papp, ×10^−6 cm/sec) of the test compounds, atenolol, propranolol and digoxin were calculated as follows:

Compound | IC50 (hLBAT) | IC50 (hIBAT) | Papp A→B at 120 min, 10 µM [1] | Papp B→A at 120 min, 10 µM [1]
CCC1(C(C)C)CN(c2ccccc2)c2cc(SC)c(O/C=C/C(=O)O)cc2S(=O)(=O)C1 (stereo not drawn) [Example 16, (E)-3-((3-ethyl-3-isopropyl-7-(methylthio)-1,1-dioxido-5-phenyl-2,3,4,5-tetrahydro-1,5-benzothiazepin-8-yl)oxy)acrylic acid] | 218 nM | 565 nM |  | 
CCC[C@@]1(CC)CN(c2ccccc2)c2cc(SC)c(O/C=C(\F)C(=O)O)cc2S(=O)(=O)C1.CCC[C@]1(CC)CN(c2ccccc2)c2cc(SC)c(O/C=C(\F)C(=O)O)cc2S(=O)(=O)C1 (mixture of isomers) [Example 18, (S)—(Z)-3-((3-ethyl-7-(methylthio)-1,1-dioxido-5-phenyl-3-propyl-2,3,4,5-tetrahydro-1,5-benzothiazepin-8-yl)oxy)-2-fluoroacrylic acid and (R)—(Z)-3-((3-ethyl-7-(methylthio)-1,1-dioxido-5-phenyl-3-propyl-2,3,4,5-tetrahydro-1,5-benzothiazepin-8-yl)oxy)-2-fluoroacrylic acid] | 38 nM | 337 nM |  | 
CCCC1(CC)CN(c2ccccc2)c2cc(SC)c(O/C=C(\F)C(=O)O)cc2S(=O)(=O)C1 (stereo not drawn) [Example 12, (Z)-3-((3-ethyl-7-(methylthio)-1,1-dioxido-5-phenyl-3-propyl-2,3,4,5-tetrahydrobenzo-1,5-thiazepin-8-yl)oxy)-2-fluoroacrylic acid] | 12 nM | 156 nM | 3.8 ×10⁻⁶ cm/s | 4.1 ×10⁻⁶ cm/s
(S)-(E)-3-((3-butyl-3-ethyl-5-(4-fluorophenyl)-7-(methylthio)-1,1-dioxido-2,3,4,5-tetrahydro-1,5-benzothiazepin-8-yl)oxy)acrylic acid and (R)-(E)-3-((3-butyl-3-ethyl-5-(4-fluorophenyl)-7-(methylthio)-1,1-dioxido-2,3,4,5 tetrahydro-1,5-benzothiazepin-8-yl)oxy)acrylic acid [Example 9] | 150 nM | 151 nM |  | 
CCCCC1(CC)CN(c2ccccc2)c2cc(N(C)C)c(O/C=C/C(=O)O)cc2S(=O)(=O)N1 (stereo not drawn) [Example 13, (E)-3-((3-butyl-7-(dimethylamino)-3-ethyl-1,1-dioxido-5-phenyl-2,3,4,5-tetrahydro-1,2,5-benzothiadiazepin-8-yl)oxy)acrylic acid] | 1860 nM | 13 nM | 22 ×10⁻⁶ cm/s | 18 ×10⁻⁶ cm/s
(S)—(Z)-3-((3-butyl-7-(dimethylamino)-3-ethyl-1,1-dioxido-5-phenyl-2,3,4,5-tetrahydro-1,2,5-benzothiadiazepin-8-yl)oxy)-2-fluoroacrylic acid and (R)—(Z)-3-((3-butyl-7-(dimethylamino)-3-ethyl-1,1-dioxido-5-phenyl-2,3,4,5-tetrahydro-1,2,5-benzothiadiazepin-8-yl)oxy)-2-fluoroacrylic acid [Example 4] | 77 nM | 91 nM |  | 
CCCC[C@@]1(CC)CN(c2ccccc2)c2cc(N(C)C)c(O/C=C/C(=O)O)cc2S(=O)(=O)N1.CCCC[C@]1(CC)CN(c2ccccc2)c2cc(N(C)C)c(O/C=C/C(=O)O)cc2S(=O)(=O)N1 (mixture of isomers) [Example 15, (S)-(E)-3-((3-butyl-7-(dimethylamino)-3-ethyl-1,1-dioxido-5-phenyl-2,3,4,5-tetrahydro-1,2,5-benzothiadiazepin-8-yl)oxy)acrylic acid and (R)-(E)-3-((3-butyl-7-(dimethylamino)-3-ethyl-1,1-dioxido-5-phenyl-2,3,4,5-tetrahydro-1,2,5-benzothiadiazepin-8-yl)oxy)acrylic acid] |  | 66 nM |  | 
CCC[C@@]1(CC)CN(c2ccccc2)c2cc(SC)c(O/C=C(\F)C(=O)O)cc2S(=O)(=O)C1.CCC[C@]1(CC)CN(c2ccccc2)c2cc(SC)c(O/C=C(\F)C(=O)O)cc2S(=O)(=O)C1 (mixture of isomers) [Example 19, (S)—(Z)-3-((3-ethyl-7-(methylthio)-1,1-dioxido-5-phenyl-3-propyl-2,3,4,5-tetrahydro-1,5-benzothiazepin-8-yl)oxy)-2-fluoroacrylic acid and (R)—(Z)-3-((3-ethyl-7-(methylthio)-1,1-dioxido-5-phenyl-3-propyl-2,3,4,5-tetrahydro-1,5-benzothiazepin-8-yl)oxy)-2-fluoroacrylic acid] | 5 nM | 283 nM |  | 
CCCCC1(CC)CN(c2ccc(F)cc2)c2cc(SC)c(O/C=C/C(=O)O)cc2S(=O)(=O)C1 (stereo not drawn) [Example 8, (E)-3-((3-butyl-3-ethyl-5-(4-fluorophenyl)-7-(methylthio)-1,1-dioxido-2,3,4,5-tetrahydro-1,5-benzothiazepin-8-yl)oxy)acrylic acid] | 118 nM | 7 nM |  | 
CCCC1(CC)CN(c2ccccc2)c2cc(SC)c(O/C=C/C(=O)O)cc2S(=O)(=O)C1 (stereo not drawn) [Example 11, (E)-3-((3-ethyl-7-(methylthio)-1,1-dioxido-5-phenyl-3-propyl-2,3,4,5-tetrahydro-1,5-benzothiazepin-8-yl)oxy)acrylic acid] | 97 nM | 260 nM |  | 
CCC1(C(C)C)CN(c2ccccc2)c2cc(SC)c(O/C=C(\F)C(=O)O)cc2S(=O)(=O)C1 (stereo not drawn) [Example 17, (Z)-3-((3-ethyl-3-isopropyl-7-(methylthio)-1,1-dioxido-5-phenyl-2,3,4,5-tetrahydro-1,5-benzothiazepin-8-yl)oxy)-2-fluoroacrylic acid] | 17 nM | 378 nM |  | 
(S)—(Z)-3-((3-butyl-3-ethyl-5-(4-fluorophenyl)-7-(methylthio)-1,1-dioxido-2,3,4,5-tetrahydro-1,5-benzothiazepin-8-yl)oxy)-2-fluoroacrylic acid and (R)—(Z)-3-((3-butyl-3-ethyl-5-(4-fluorophenyl)-7-(methylthio)-1,1-dioxido-2,3,4,5-tetrahydro-1,5-benzothiazepin-8-yl)oxy)-2-fluoroacrylic acid [Example 6] | 12 nM | 66 nM |  | 

From patent publication US11267794B2, “Benzothia(di)azepine compounds and their use as bile acid modulators” (Albireo AB, priority 2019, dated 2022)
